Experimental data as given in patent publication US8609725B2, “Method of using beta-hydroxy-beta-methylbutyrate for reducing tumor growth rate” (Abbott Laboratories, priority 2004, dated 2013).

Key:
[1] = system: soleus muscle of mice bearing the MAC16 tumor; test: Soleus muscle weight and protein degradation (tyrosine release) in MAC16 mice; assay type: in vivo, NMRI mice; conditions: EPA 0.6 g/kg, HMB 0.25 g/kg or the combination for 3 days
Source text: Pure strain male NMRI mice (average weight 25 g) were obtained from our own inbred colony and were transplanted with fragments of the MAC16 tumor s.c. into the flank by means of a trochar, selecting from donor animals with established weight loss as described in Bibby, M. C. et al. Characterization of a transplantable adenocarcinoma of the mouse colon producing cachexia in recipient animals. J. Natl. Cancer Inst., 78: 539-546, 1987. Transplanted animals were fed a rat and mouse breeding diet (Special Diet Services, Witham, United Kingdom) and water ad libitum, and weight loss was evident 10-12 days after tumor implantation. Animals just prior to the development of weight loss were randomized to receive daily either EPA (in olive oil), HMB (in PBS) or the combination as described in the figure legends administered p.o. by gavage, while control animals received either olive oil or PBS. EPA (98% as free acid) was purchased from Biomol Research Laboratories Inc., PA, USA. HMB (as the calcium salt) was obtained from Abbott Laboratories, Columbus, Ohio, USA. All groups contained a minimum of 6 mice. Tumor volume, body weight and food and water intake were monitored daily. […] Protein degradation was determined by the release of tyrosine over a 2 h period as described in […]. et al. A fluorimetric method for the estimation of tyrosine in plasma and tissues. […]

[2] = system: MSS1, an ATPase subunit of the 19S proteasome regulatory complex; test: Western blotting of MSS1 in gastrocnemius muscle of MAC16 mice; assay type: in vivo, NMRI mice
C2C12 myotubes = test: PIF-induced total protein degradation in C2C12 myotubes; assay type: cell-based, murine
Procedure: C2C12 myotubes were routinely passaged in DMEM supplemented with 10% FCS, glutamine and 1% penicillin-streptomycin under an atmosphere of 10% CO2 in air at 37 °C. Myotubes were formed by allowing confluent cultures to differentiate in DMEM containing 2% HS, with medium changes every 2 days.
PIF was purified from solid MAC16 tumors (Todorov, P. et al. Characterization of a cancer cachectic factor. Nature, 379: 739-742, 1996.) excised from mice with a weight loss of 20 to 25%. Tumors were homogenised in 10 mM Tris-HCl, pH 8.0, containing 0.5 mM phenylmethylsulfonyl fluoride, 0.5 mM EGTA and 1 mM dithiothreitol at a concentration of 5 ml/g tumor. […]
Myotubes in six-well multidishes were labeled with L-[2, 6^−3H] phenylalanine (0.67 mCi/mmole) for 24 h in 2 ml DMEM containing 2% HS. They were then washed three times in PBS followed by a 2 h incubation at 37° C. in DMEM without phenol red until no more radioactivity appeared in the supernatant. These myotubes were then further incubated for 24 h in the presence of PIF, with and without EPA or HMB, in fresh DMEM without phenol red, to prevent quenching of counts, and in the presence of 2 mM cold phenylalanine to prevent reincorporation of radioactivity. The amount of radioactivity released into the medium was expressed as a percentage of control cultures not exposed to PIF to determine total protein degradation.

CC(C)(O)CC(=O)O [HMB, beta-hydroxy-beta-methylbutyric acid]
tyrosine release (total protein degradation in soleus muscle) [1]: as effective as EPA | expression of MSS1 ([2]; HMB 0.25 g/kg, EPA 0.6 g/kg or combination, 3 days): attenuated | reduction of protein expression of MSS1 ([2]; summary of Examples I-IV): at least 50% | attenuation of PIF induced protein degradation (C2C12 myotubes; 25 μM HMB, at low, but not at high concentrations of PIF): some attenuation | attenuation of PIF induced protein degradation (C2C12 myotubes; 50 μM, 24 h after addition of PIF): equally effective
